Data: US20050209278A1, “Piperidinyl- and piperazinyl-sulfonylmethyl hydroxamic acids and their use as protease inhibitors” (priority 2002, published 2005)

Experiments:
MMP-2 = molecular target: T1, MMP-2 (Homo sapiens, UniProt P08253); experiment: In vitro MMP inhibition, Ki determination (fluorogenic substrate II); type: biochemical; settings: value not in parenthesis; read-out: MMP-2 Ki
T1 construct: made in house; host or cells: MMP-2-transfected p2AHT2 cells
T1 sequence (P08253 110-660): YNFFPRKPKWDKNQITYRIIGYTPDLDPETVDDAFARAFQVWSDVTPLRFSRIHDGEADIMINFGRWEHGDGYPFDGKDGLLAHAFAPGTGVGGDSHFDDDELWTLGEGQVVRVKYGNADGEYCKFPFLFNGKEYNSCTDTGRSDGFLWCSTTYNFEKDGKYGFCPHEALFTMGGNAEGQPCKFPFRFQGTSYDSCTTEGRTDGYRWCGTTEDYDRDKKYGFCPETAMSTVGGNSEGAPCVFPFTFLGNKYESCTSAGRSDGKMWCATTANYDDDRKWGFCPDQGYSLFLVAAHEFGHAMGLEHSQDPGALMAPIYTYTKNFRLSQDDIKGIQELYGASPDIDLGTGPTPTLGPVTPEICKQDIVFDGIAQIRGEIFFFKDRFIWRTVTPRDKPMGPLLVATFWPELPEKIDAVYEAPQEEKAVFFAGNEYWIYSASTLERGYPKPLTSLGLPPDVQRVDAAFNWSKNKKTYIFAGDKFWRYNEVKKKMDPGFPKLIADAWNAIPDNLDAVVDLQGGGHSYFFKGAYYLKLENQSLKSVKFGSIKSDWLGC

MMP-13 = molecular target: T2, MMP-13 (Homo sapiens, UniProt P45452); experiment: as above; type: biochemical; settings: value not in parenthesis; read-out: MMP-13 Ki
T2 construct: made in house; host or cells: baculovirus / insect cells
Summary of the method: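 Ki determined with human recombinant MMP-13, baculovirus-expressed as proenzyme and activated with APMA. Fluorogenic MCA/Dpa substrate II at 4 μM (at or below Km) with low enzyme in Tris buffer pH 7.5 with CaCl2. Incubation was 1 h at room temperature, with fluorescence read at 330/420 nm.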

Compound | Ki (MMP-2) [nM] | Ki (MMP-13) [nM]
COc1ccc(-c2ccc(N3CCN(S(=O)(=O)C4(C(=O)NO)CCOCC4)CC3)nc2)cc1 [Example 61] | 0.39 | 0.16
O=C(NO)C1(S(=O)(=O)N2CCN(c3ccc(OC(F)(F)C(F)F)cc3)CC2)CCSCC1 [Example 62] | 0.22 | 0.5
CCCCOc1ccc(N2CCN(S(=O)(=O)C3(C(=O)NO)CC3)CC2)cc1 [Example 63] | 6.77 | 3.16
CCCCOc1ccc(N2CCN(S(=O)(=O)C3(C(=O)NO)CCN(c4ccc(OC(F)(F)C(F)F)cc4)CC3)CC2)cc1 [Example 65] | 23.6 | 32.7
O=C(NO)C1(S(=O)(=O)N2CCN(c3ccc4c(c3)OC(F)(F)C(F)(F)O4)CC2)CCOCC1 [Example 67] | 50.5 | 156
O=C(NO)C1(S(=O)(=O)N2CCN(c3ccc(COCC(F)(F)C(F)(F)F)cc3)CC2)CCOCC1 [Example 70] | 2.57 | 0.61
CCCCOc1ccc(N2CCN(S(=O)(=O)C3(C(=O)NO)CCN(C(=O)c4ccco4)CC3)CC2)cc1 [Example 156] | 0.75 | 0.31
CCCCOc1ccc(N2CCN(S(=O)(=O)C3(C(=O)NO)CCN(c4nccs4)CC3)CC2)cc1 [Example 157] | 1.47 | 1.02
CCCCOc1ccc(N2CCN(S(=O)(=O)C3(C(=O)NO)CCN(c4ncccn4)CC3)CC2)cc1 [Example 159] | 0.702 | 0.587
CCCCOc1ccc(N2CCN(S(=O)(=O)C3(C(=O)NO)CCN(C(=O)c4cccs4)CC3)CC2)cc1 [Example 160] | 0.599 | 0.417
Cc1ccc(N2CCC(C(=O)NO)(S(=O)(=O)N3CCN(c4ccc(OCCCC(F)(F)F)cc4)CC3)CC2)cc1 [Example 161] | 8.26 | 2.91
O=C(NO)C1(S(=O)(=O)N2CCN(c3ccc(OCCN4CCCC4)cc3)CC2)CCOCC1 [Example 162] | 18.4 | 7.71
CCCCOc1ccc(N2CCN(S(=O)(=O)C3(C(=O)NO)CCN(CCOC)CC3)CC2)cn1 [Example 164] | 28.6 | 22
CCCCOc1c(F)cc(N2CCN(S(=O)(=O)C3(C(=O)NO)CCN(CCOC)CC3)CC2)cc1F [Example 165] | 0.49 | 1.03
COCCN1CCC(C(=O)NO)(S(=O)(=O)N2CCN(c3ccc(OCC(C)C)c(F)c3)CC2)CC1 [Example 166] | 0.72 | 0.71
CCCCCc1ccc(N2CCN(S(=O)(=O)C3(C(=O)NO)CCOCC3)CC2)nc1 [Example 167] | 0.11 | 0.08
O=C(NO)C1(S(=O)(=O)N2CCN(c3ccccn3)CC2)CCOCC1 [Example 169] | 1.09 | 1.88
O=C(NO)C1(S(=O)(=O)N2CCN(c3ccc(SC(F)(F)F)cc3)CC2)CCOCC1 [Example 170] | 0.24 | 0.96
CCCc1ccc(N2CCN(S(=O)(=O)C3(C(=O)NO)CCN(c4ccc(C)cc4)CC3)CC2)cc1 [Example 171] | 6.82 | 21.5
CCCCc1ccc(N2CCN(S(=O)(=O)C3(C(=O)NO)CCN(CCOC)CC3)CC2)cc1F [Example 173] | 0.209 | 0.696

Compound | Ki (MMP-2) [nM] | Ki (MMP-13) [nM]
COCCN1CCC(C(=O)NO)(S(=O)(=O)N2CCN(c3ccc(C(C)=O)cc3)CC2)CC1 [Example 174] | 2.13 | 3.52
CCCNC(=O)c1ccc(N2CCN(S(=O)(=O)C3(C(=O)NO)CCN(CCOC)CC3)CC2)cc1 [Example 175] | 46.9 | 8.25
COCCN1CCC(C(=O)NO)(S(=O)(=O)N2CCN(c3ccccn3)CC2)CC1 [Example 176] | 1.59 | 1.73
CCCCC(=O)c1ccc(N2CCN(S(=O)(=O)C3(C(=O)NO)CCN(CCOC)CC3)CC2)cc1 [Example 177] | 2.33 | 0.847
CCCc1cnc(N2CCN(S(=O)(=O)C3(C(=O)NO)CCN(CCOC)CC3)CC2)nc1 [Example 178] | 7.88 | 5.26
CCCC(C)Cc1ccc(N2CCN(S(=O)(=O)C3(C(=O)NO)CCN(CCOC)CC3)CC2)cc1 (centres unmarked) [Example 189] | 9.78 | 2.06
CCC(C)Cc1ccc(N2CCN(S(=O)(=O)C3(C(=O)NO)CCN(CCOC)CC3)CC2)cc1 (centres unmarked) [Example 190] | 1.49 | 0.842
COCCN1CCC(C(=O)NO)(S(=O)(=O)N2CCN(c3ccc(CCCCC(C)C)cc3)CC2)CC1 [Example 191] | 0.986 | 0.578
COCCN1CCC(C(=O)NO)(S(=O)(=O)N2CCN(c3ccc(CC(C)C)cc3)CC2)CC1 [Example 192] | 1.9 | 1.93
CCc1ccc(N2CCN(S(=O)(=O)C3(C(=O)NO)CCN(CCOC)CC3)CC2)cc1 [Example 193] | 1.21 | 1.77
COCCN1CCC(C(=O)NO)(S(=O)(=O)N2CCN(c3ccc(C)cc3)CC2)CC1 [Example 194] | 1.74 | 4.06
COCCN1CCC(C(=O)NO)(S(=O)(=O)N2CCN(c3ccccc3)CC2)CC1 [Example 195] | 6.17 | 8.07
COCCN1CCC(C(=O)NO)(S(=O)(=O)N2CCN(c3nc4ccccc4o3)CC2)CC1 [Example 196] | 25.1 | 56.1
CCCCCc1ccc(N2CCN(S(=O)(=O)C3(C(=O)NO)CCOCC3)CC2)nn1 [Example 197] | 5.78 | 6.05
O=C(NO)C1(S(=O)(=O)N2CCN(c3ccc(Cl)nn3)CC2)CCOCC1 [Example 198] | 8.28 | 59.9
CCCCCCc1ccc(N2CCN(S(=O)(=O)C3(C(=O)NO)CCN(CCOC)CC3)CC2)cc1 [Example 199] | 0.633 | 0.397
CCCc1ccc(N2CCN(S(=O)(=O)C3(C(=O)NO)CCN(CCOC)CC3)CC2)cc1 [Example 200] | 0.524 | 1.61
COCCN1CCC(C(=O)NO)(S(=O)(=O)N2CCN(c3ccc(Br)cc3)CC2)CC1 [Example 201] | 0.521 | 1.36
COCCN1CCC(C(=O)NO)(S(=O)(=O)N2CCN(c3ccc(OC(F)(F)F)cc3)CC2)CC1 [Example 202] | 0.432 | 0.967
O=C(NO)C1(S(=O)(=O)N2CCN(c3ccc(OC(F)(F)F)cc3)CC2)CCN(C2CC2)CC1 [Example 203] | 0.28 | 0.35

Compound | Ki (MMP-2) [nM] | Ki (MMP-13) [nM]
CCCCCc1ccc(N2CCN(S(=O)(=O)C3(C(=O)NO)CCN(S(N)(=O)=O)CC3)CC2)cc1 [Example 205] | 2.03 | 2.4
CCCCCc1ccc(N2CCN(S(=O)(=O)C3(C(=O)NO)CCN(C(=O)CC)CC3)CC2)cc1 [Example 206] | 0.63 | 0.41
Cc1ccc(-c2ccc(N3CCN(S(=O)(=O)C4(C(=O)NO)CCOCC4)CC3)cc2)cc1 [Example 207] | 2.02 | 0.94
O=C(NO)C1(S(=O)(=O)N2CCN(c3ccc(-c4ccc(F)cc4)cc3)CC2)CCOCC1 [Example 208] | 0.24 | 0.36
O=C(NO)C1(S(=O)(=O)N2CCN(c3cnc(CCCC(F)(F)F)cn3)CC2)CCOCC1 [Example 209] | 3.79 | 3.32
O=C(NO)C1(S(=O)(=O)N2CCN(c3cnc(CCC(F)(F)C(F)(F)F)cn3)CC2)CCOCC1 [Example 210] | 1.04 | 0.69
O=C(NO)C1(S(=O)(=O)N2CCN(c3ccc(OCC(F)(F)C(F)(F)F)cc3)CC2)CCOCC1 [Example 212] | 0.54 | 0.3
CC(C)Cc1ccc(N2CCN(S(=O)(=O)C3(C(=O)NO)CCOCC3)CC2)c(F)c1 [Example 213] | 12.6 | 16.1
CCCCc1nnc(N2CCN(S(=O)(=O)C3(C(=O)NO)CCOCC3)CC2)s1 [Example 214] | 102 | 482
O=C(NO)C1(S(=O)(=O)N2CCN(c3nncs3)CC2)CCOCC1 [Example 215] | 2370 | 1890
CCCc1nnc(N2CCN(S(=O)(=O)C3(C(=O)NO)CCOCC3)CC2)s1 [Example 216] | 214 | 734
CCCCc1ccc(N2CCN(S(=O)(=O)C(C)C(=O)NO)CC2)nc1 (centres unmarked) [Example 217] | 0.29 | 1.21
O=C(NO)C1(S(=O)(=O)N2CCN(c3cnc(CCC(F)(F)F)cn3)CC2)CCOCC1 [Example 218] | 1.39 | 2.03
CCCCCc1cnc(N2CCN(S(=O)(=O)C3(C(=O)NO)CCOCC3)CC2)cn1 [Example 219] | 2.5 | 1.11
CCCCOc1ccc(N2CCN(S(=O)(=O)C3(C(=O)NO)CCN(c4ccc5c(c4)OCO5)CC3)CC2)cc1 [Example 221] | 8.53 | 3.52
CCCCOc1ccc(N2CCN(S(=O)(=O)C3(C(=O)NO)CCS(=O)(=O)CC3)CC2)cc1 [Example 222] | 7.88 | 3.99
CCCCOc1ccc(N2CCN(S(=O)(=O)C3(C(=O)NO)CCN(c4ccsc4)CC3)CC2)cc1 [Example 223] | 3.46 | 1.4
CCCCOc1ccc(N2CCN(S(=O)(=O)C3(C(=O)NO)CCN(c4ccc(C#N)cc4)CC3)CC2)cc1 [Example 225] | 9.28 | 5.88
